Publication PMC8714961, “Involvement of P-gp on Reversing Multidrug Resistance Effects of 23-Hydroxybetulinic Acid on Chemotherapeutic Agents” (Frontiers in Pharmacology, 2021)
Where two headings read alike, the source gives them in different places. Marks after values point to notes of the source that are not given here.

Key:
[1] = test system: MCF-7/ADR cells; test: Hoechst assay (apoptosis); assay type: cell-based, human; details: for Number of apoptosis cells, single agent: 20 µM alone, vs control group
Experimental: MCF-7/ADR cells were collected and cultured at the density of 2.0 × 10^5/well in 24-well plates. […] The cells were dyed with Hoechst 33,342 (Beyotime, Shanghai, China) in the dark at 37°C for 30 min after washing with phosphate buffered saline (PBS). The morphological changes of the nucleus were evaluated by a fluorescence microscope.

[2] = test system: MCF-7/ADR cells; test: Trypan blue exclusion assay, MCF-7/ADR cells; assay type: cell-based; details: for Cytotoxicity of combination exposure with ADR to MCF-7/ADR: 0–20 µM with ADR 3 µM; for Cell toxicity as a single agent: 0–20 µM
Experimental: (§1) MCF-7 (human breast carcinoma cells) and MCF-7/ADR (P-gp-overexpressing derivative cells) cell lines were obtained from Blood Diseases Hospital, Chinese Academy of Medica ([Shi et al., 2011]). The cells were routinely maintained in RPMI 1640 with 10% heat-inactivated fetal bovine serum (FBS), 1% non-essential amino acid solution, 0.1 mg/ml streptomycin, and 100 units/ml penicillin. Caco-2 cells were purchased from American Type Culture Collection (ATCC, Rockville, MD, United States). Vector-MDCK and MDR1-MDCK cells were purchased from PharmaResources Co., Ltd. (China). Both Caco-2 and MDCK cells were maintained at Dulbecco’s modified Eagle’s medium (DMEM) with 10% FBS, 1% non-essential amino acid solution, 0.1 mg/ml streptomycin, and 100 units/ml penicillin. MCF-7/ADR cells were treated with […] and were cultured in ADR-free medium for more than 14 days before the experiment. All cells were cultured at 37°C in a humidified atmosphere of 5% CO2.
(§2) Trypan blue exclusion assay was used to measure the viability of cells to compounds. Briefly, MCF-7/sensitive (MCF-7/S) and MCF-7/ADR cells were diluted into the density of 0.5×10^4 cells/ml, then cells (1 ml) were seeded in culture plates. […]. The viable and dead cells (stained in blue) were counted by haemacytometer.

[3] = test system: MCF-7/S cells; test: ADR/VCR accumulation study in MCF-7/S cells; details: ADR/VCR 5 µM, test compound 0.2, 2, 20 µM, 1 h
Experimental: (§7) MCF-7 cells (1×10^5/Well) were incubated in 24-well plates. […] After 1 h incubation, the compound solution was aspirated to stop further accumulation, and the monolayers were rinsed with cold Hank’s solution for three times. The drug content was detected by lysing the cells with ultrasound, and then the single well lysate was transferred to a plastic EP tube for further analysis. The protein concentration of the cells was measured using Coomassie brilliant blue.

[4] = test system: MDCK-MDR1 cell monolayers; test: MDCK-MDR1 transport of BA/23-HBA with or without verapamil; details: for Folds (RE): +VER (verapamil 20 µM) vs without VER
Experimental: (§3) Briefly, MDCK-MDR1 cells (1×10^5/Well) were seeded onto […] pore-size transwell inserts (Millipore, MA, United States) in 24-well plates. Cells were cultured for 5–7 days, when the transepithelial electrical resistance (TEER) values were 120–240 Ω cm^2.
(§4) The cells were rinsed with warmed Hank’s balanced salt solution (HBSS), and the inserts were incubated for 20 min at 37°C. […] Aliquots (50 µl) were taken from the receiver compartment at intervals of 30, 60, 90, and 120 min and replaced with fresh buffer. In the study, verapamil (VER), known P-gp inhibitor, was selected as positive control.
(§5) The apparent permeability values (Papp) were evaluated in all experiments according to the following equation: Papp=dQ/dt/AC0 (1) where A means the insert area and C0 represents the initial concentration. dQ/dt represents the slope of the cumulative content transported during the time course of the period studied.
(§6) The efflux ratio (ER) was detected according to the ratio of Papp as the following equation: ER=Papp(B−A)/Papp(A−B) (2)

[5] = test system: P-gp; test: as above; details: dog
Experimental: as §3, §4, §5, §6

[6] = test system: MCF-7/S cells; test: Trypan blue exclusion assay, MCF-7/S cells; assay type: cell-based; details: 0.2, 2 and 20 µM with ADR 0.08 µM or VCR 0.5 µM, 48 h
Experimental: as §1, §2

[7] = biological target: T1, P-gp (Homo sapiens, UniProt P08183); test: MDR1 shift assay (UIC2 binding); assay type: cell-based; design: endogenous in cells; host or cells: MCF-7/ADR; details: 25 µM, MCF-7/ADR cells, vs solvent control
T1 sequence (P08183 whole entry): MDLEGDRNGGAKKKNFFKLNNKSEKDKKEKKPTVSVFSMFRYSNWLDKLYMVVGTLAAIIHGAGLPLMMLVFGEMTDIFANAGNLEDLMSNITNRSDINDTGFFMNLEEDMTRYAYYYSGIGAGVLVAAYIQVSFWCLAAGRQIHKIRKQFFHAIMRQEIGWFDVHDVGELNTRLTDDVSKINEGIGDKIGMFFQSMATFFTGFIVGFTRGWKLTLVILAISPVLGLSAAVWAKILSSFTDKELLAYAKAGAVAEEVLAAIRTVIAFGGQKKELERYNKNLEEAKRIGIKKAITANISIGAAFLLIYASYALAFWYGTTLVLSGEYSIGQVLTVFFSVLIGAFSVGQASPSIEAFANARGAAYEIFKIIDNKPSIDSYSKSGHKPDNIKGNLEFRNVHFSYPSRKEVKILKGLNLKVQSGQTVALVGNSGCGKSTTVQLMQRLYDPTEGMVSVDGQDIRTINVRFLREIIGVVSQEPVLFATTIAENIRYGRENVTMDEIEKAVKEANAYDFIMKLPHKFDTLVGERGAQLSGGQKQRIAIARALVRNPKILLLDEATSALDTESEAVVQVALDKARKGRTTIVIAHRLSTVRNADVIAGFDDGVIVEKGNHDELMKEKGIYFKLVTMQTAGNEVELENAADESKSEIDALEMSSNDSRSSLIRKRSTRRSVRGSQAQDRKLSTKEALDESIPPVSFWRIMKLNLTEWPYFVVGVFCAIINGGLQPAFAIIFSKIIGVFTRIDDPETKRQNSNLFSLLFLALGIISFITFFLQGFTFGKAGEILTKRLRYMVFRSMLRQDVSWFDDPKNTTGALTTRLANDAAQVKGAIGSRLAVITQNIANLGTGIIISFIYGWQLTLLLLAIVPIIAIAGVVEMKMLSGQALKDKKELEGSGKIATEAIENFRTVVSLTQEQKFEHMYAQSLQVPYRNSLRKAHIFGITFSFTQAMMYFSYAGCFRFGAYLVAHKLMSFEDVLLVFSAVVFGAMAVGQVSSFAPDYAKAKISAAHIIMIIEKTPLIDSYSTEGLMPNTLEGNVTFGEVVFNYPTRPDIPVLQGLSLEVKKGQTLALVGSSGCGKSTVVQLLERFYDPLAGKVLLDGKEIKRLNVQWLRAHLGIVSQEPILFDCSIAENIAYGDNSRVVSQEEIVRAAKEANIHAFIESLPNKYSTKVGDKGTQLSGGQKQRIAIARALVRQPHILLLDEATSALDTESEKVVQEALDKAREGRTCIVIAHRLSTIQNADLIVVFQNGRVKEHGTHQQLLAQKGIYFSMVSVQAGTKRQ
Experimental: The monoclonal antibody UIC2 (2.5 μl) was added and incubated for 15 min, then 1 ml of cold binding buffer was used to terminate reaction. The cells were rinsed twice, followed by adding cold phycoerythrin-labeled anti-mouse IgG (250 μl) for another 15 min in the dark. Finally, cells were rinsed and incubated in cold binding buffer (250 μl) and further evaluated by flow cytometer (Cytomics FC 500; Beckman Coulter, Fullerton, CA). In this study, vincristine (25 µM) was set as positive control.

[8] = test system: MCF-7/ADR cells; test: ADR/VCR accumulation study in MCF-7/ADR cells; details: ADR/VCR 5 µM, test compound 0.2, 2, 20 µM, 1 h
Experimental: as §7

[9] = biological target: T1, P-gp; test: Caco-2 uptake study (digoxin, VCR)
Experimental: Briefly, the cells (1×10^5/Well) were cultured in 24-well plates, and culture medium was changed every other day. The uptake study was taken when the monolayers formed. […] After 2 h incubation, the drug solution was removed to terminate reaction, and the monolayers were washed three times with cold Hank’s solution. The other steps were taken according to the above process in Adriamycin/Vincristine Accumulation Study.

[10] = biological target: T1, P-gp; details: for Folds (RE) of digoxin: vs control
Experimental: (§8) Briefly, MDCK-MDR1 cells (1×10^5/Well) were seeded onto 0.4 mm pore-size transwell inserts (Millipore, MA, United States) in 24-well plates.

[11] = biological target: T1, P-gp; test: MDCK-MDR1 transport study, inhibition of VCR transport; details: for Folds (RE) of VCR: vs control
Experimental: Briefly, MDCK-MDR1 cells (1×10^5/Well) were seeded onto […] pore-size transwell inserts (Millipore, MA, United States) in 24-well plates.
as §4, §5

[12] = biological target: T1, P-gp; test: in vitro; details: dog, MDCK-MDR1
Experimental: as §8

[13] = MDCK-MDR1, with verapamil 20 µM
[14] = digoxin 5 µM with test compound 0.2 µM
[15] = digoxin 5 µM with test compound 2 µM
[16] = digoxin 5 µM with test compound 20 µM
[17] = compound 0.2 µM, +VER (verapamil 20 µM)
[18] = compound 0.2 µM, without verapamil
[19] = compound 2 µM, +VER (verapamil 20 µM)
[20] = compound 2 µM, without verapamil
[21] = compound 20 µM, +VER (verapamil 20 µM)
[22] = compound 20 µM, without verapamil

SMILES: C=C(C)[C@@H]1CC[C@]2(C(=O)O)CC[C@]3(C)[C@H](CC[C@@H]4[C@@]5(C)CC[C@H](O)C(C)(C)[C@@H]5CC[C@]43C)[C@@H]12 [BA, Betulinic acid]
- Number of apoptosis cells, single agent [1]: not obviously different with the control group
- Cytotoxicity of combination exposure with ADR to MCF-7/ADR [2]: not observed
- Cell toxicity as a single agent [2]: no cell toxicity was detected
- Accumulation of ADR/VCR in sensitive MCF-7 cells [3]: little impact was observed
- Folds (RE) ([4]; compound 0.2 µM): 0.66
- Folds (RE) ([4]; compound 2 µM): 0.75
- Folds (RE) ([4]; compound 20 µM): 0.78
- Papp A→B at 120 min, 0.2 µM ([5]; MDCK-MDR1): 61.2 ± 9.36 ×10⁻⁶ cm/s
- Papp A→B at 120 min, 2 µM ([5]; MDCK-MDR1): 5.43 ± 0.5 ×10⁻⁶ cm/s
- Papp A→B at 120 min, 20 µM ([5]; MDCK-MDR1): 0.72 ± 0.26 ×10⁻⁶ cm/s
- Papp B→A at 120 min, 0.2 µM ([5]; MDCK-MDR1): 55.1 ± 9.8 ×10⁻⁶ cm/s
- Papp B→A at 120 min, 2 µM ([5]; MDCK-MDR1): 6.51 ± 0.81 ×10⁻⁶ cm/s
- Papp B→A at 120 min, 20 µM ([5]; MDCK-MDR1): 0.59 ± 0.14 ×10⁻⁶ cm/s
- Papp A→B at 120 min, 0.2 µM [5, 13]: 105 ± 10.5 ×10⁻⁶ cm/s
- Papp A→B at 120 min, 2 µM [5, 13]: 7.65 ± 1.53 ×10⁻⁶ cm/s
- Papp A→B at 120 min, 20 µM [5, 13]: 0.26 ± 0.05 ×10⁻⁶ cm/s
- Papp B→A at 120 min, 0.2 µM [5, 13]: 62.1 ± 4.71 ×10⁻⁶ cm/s
- Papp B→A at 120 min, 2 µM [5, 13]: 6.9 ± 0.76 ×10⁻⁶ cm/s
- Papp B→A at 120 min, 20 µM [5, 13]: 0.17 ± 0.05 ×10⁻⁶ cm/s
- Effect on cytotoxicity of MCF-7/S cells to ADR or VCR [6]: neither 23-HBA nor BA showed significant effects on cytotoxicity

SMILES: C=C(C)[C@@H]1CC[C@]2(C(=O)O)CC[C@]3(C)[C@H](CC[C@@H]4[C@@]5(C)CC[C@H](O)[C@@](C)(CO)[C@@H]5CC[C@]43C)[C@@H]12 [23-HBA, 23-hydroxybetulinic acid]
- Fluorescence intensity of UIC2 binding (MDR1 shift) [7]: fluorescence intensity showed slight increase
- Intracellular accumulation of ADR/VCR in resistant MCF-7 cells [8]: obviously increased
- Number of apoptosis cells, single agent [1]: not obviously different with the control group
- Apoptosis caused by ADR in combination exposure ([1]; 2 and 20 µM with ADR 3 µM): dose-dependent (2 and 20 μM) increase in the apoptosis caused by ADR
- Inhibitory effect compared with verapamil (20 µM) in Caco-2 cells ([9]; 20 µM): higher than that of verapamil
- Effect on uptake of VCR and digoxin in Caco-2 cells (P-gp inhibition) ([9]; 0.2, 2 and 20 µM, 2 h): showed dose-dependent increase on the penetration of VCR and digoxin
- RE (net efflux) of digoxin [10, 14]: 31.57
- Folds (RE) of digoxin [10, 14]: 1.16
- RE (net efflux) of digoxin [10, 15]: 27.96
- Folds (RE) of digoxin [10, 15]: 1.31
- RE (net efflux) of digoxin [10, 16]: 2.69
- Folds (RE) of digoxin [10, 16]: 13.61
- Cytotoxicity of combination exposure with ADR to MCF-7/ADR [2]: showed significant cytotoxicity to MCF-7/ADR
- Cell toxicity as a single agent [2]: no cell toxicity was detected
- Effect on cytotoxicity of MCF-7/ADR cells to ADR or VCR ([2]; 0.2, 2 and 20 µM with ADR 3 µM or VCR 6 µM, 48 h): can increase cytotoxicity of MCF-7/ADR cells to ADR or VCR in concentration-dependent manner
- Accumulation of ADR/VCR in sensitive MCF-7 cells [3]: little impact was observed
- ER values ([4]; MDCK-MDR1 cells, all the concentrations (0.2–20 µM)): less than 1.5
- Papp A-B [4, 17]: 8.49 ± 1.39 ×10^−6 cm s^−1
- Papp B-A [4, 17]: 5.20 ± 0.59 ×10^−6 cm s^−1
- RE (net efflux) [4, 17]: 0.61**
- Folds (RE) ([4]; compound 0.2 µM): 0.41
- Papp A-B [4, 18]: 6.73 ± 0.09 ×10^−6 cm s^−1
- Papp B-A [4, 18]: 10.01 ± 1.38 ×10^−6 cm s^−1
- RE (net efflux) [4, 18]: 1.49
- Papp A-B [4, 19]: 10.03 ± 3.22 ×10^−6 cm s^−1
- Papp B-A [4, 19]: 7.83 ± 0.32 ×10^−6 cm s^−1
- RE (net efflux) [4, 19]: 0.78*
- Folds (RE) ([4]; compound 2 µM): 0.63
- Papp A-B [4, 20]: 7.07 ± 0.64 ×10^−6 cm s^−1
- Papp B-A [4, 20]: 8.75 ± 0.31 ×10^−6 cm s^−1
- RE (net efflux) [4, 20]: 1.24
- Papp A-B [4, 21]: 12.76 ± 1.13 ×10^−6 cm s^−1
- Papp B-A [4, 21]: 7.47 ± 1.64 ×10^−6 cm s^−1
- RE (net efflux) [4, 21]: 0.59
- Folds (RE) ([4]; compound 20 µM): 0.82
- Papp A-B [4, 22]: 5.95 ± 0.94 ×10^−6 cm s^−1
- RE (net efflux) [4, 22]: 0.72
- Effect on cytotoxicity of MCF-7/S cells to ADR or VCR [6]: neither 23-HBA nor BA showed significant effects on cytotoxicity
- Papp A→B of VCR ([11]; VCR with test compound 0.2 µM): 0.69 ± 0.30 ×10^−6 cm s^−1
- Papp B→A of VCR ([11]; VCR with test compound 0.2 µM): 4.45 ± 1.12 ×10^−6 cm s^−1
- RE (net efflux) of VCR ([11]; VCR with test compound 0.2 µM): 6.41
- Folds (RE) of VCR ([11]; VCR with test compound 0.2 µM): 1.70
- Papp A→B of VCR ([11]; VCR with test compound 2 µM): 2.49 ± 0.59 ×10^−6 cm s^−1
- Papp B→A of VCR ([11]; VCR with test compound 2 µM): 0.39 ± 0.01 ×10^−6 cm s^−1
- RE (net efflux) of VCR ([11]; VCR with test compound 2 µM): 0.16
- Folds (RE) of VCR ([11]; VCR with test compound 2 µM): 70.15
- Papp A→B of VCR ([11]; VCR with test compound 20 µM): 2.19 ± 1.74 ×10^−6 cm s^−1
- Papp B→A of VCR ([11]; VCR with test compound 20 µM): 0.48 ± 0.08 ×10^−6 cm s^−1
- RE (net efflux) of VCR ([11]; VCR with test compound 20 µM): 0.22
- Folds (RE) of VCR ([11]; VCR with test compound 20 µM): 49.32

SMILES: C[C@H]1O[C@@H](O[C@H]2[C@@H](O)C[C@H](O[C@H]3[C@@H](O)C[C@H](O[C@H]4CC[C@@]5(C)[C@H](CC[C@@H]6[C@@H]5C[C@@H](O)[C@]5(C)[C@@H](C7=CC(=O)OC7)CC[C@]65O)C4)O[C@@H]3C)O[C@@H]2C)C[C@H](O)[C@@H]1O [digoxin, reference compound]
- RE (net efflux) of digoxin ([10]; Control: digoxin 5 µM alone, MDCK-MDR1 monolayers): 36.56
- Papp A→B at 120 min, 5 µM [12]: 0.31 ± 0.05 ×10⁻⁶ cm/s
